# Source: patent US6897219B2, “Heteroaryl diazacycloalkanes, their preparation and use” (priority 1997, dated 2005)
# Legend:
# [1] = biological target: nAChR formed by the α7 subunit isoform (Rattus norvegicus, UniProt Q05941); assay: biochemical; type: binding
# [2] = biological target: nAChRs comprised of α4 and β2 subunits (Rattus norvegicus, UniProt P09483+P12390); assay: In vitro inhibition of 3H-cytisine binding
# Method: The predominant subtype with high affinity for nicotine is comprised of α4 and β2 subunits. nAChRs of the latter type can selectively be labelled by the nicotine agonist ^3H-cytisine.
# Tissue Preparation: Preparations are performed at 0-4° C. unless otherwise indicated. […] The homogenate is centrifuged at 27,000×g for 10 min. The supernatant is discarded and the pellet is resuspended in fresh buffer and centrifuged a second time. The final pellet is resuspended in fresh buffer (35 ml per g of original tissue) and used for binding assays.
# Assay: Aliquots of 500 μl homogenate are added to 25 μl of test solution and 25 μl of ^3H-cytisine (1 nM, final concentration), mixed and incubated for 90 min at 2° C. Non-specific binding is determined using (−)-nicotine (100 μM, final concentration). After incubation the samples are added 5 ml of ice-cold buffer and poured directly onto Whatman GF/C glass fibre filters under suction and immediately washed with 2×5 ml ice-cold buffer. The amount of radioactivity on the filters is determined by conventional liquid scintillation counting. Specific binding is total binding minus non-specific binding.
# [3] = biological target: T1, neuronal nicotinic receptors (α4β2 subtype high affinity site) (Rattus norvegicus, UniProt P09483+P12390); assay: In vitro inhibition of 3H-epibatidin binding; conditions: rat forebrain homogenate, 0.3 nM 3H-epibatidin, 60 min at room temperature; read-out: 3H-epibatidin IC50
# T1 construct: The forebrain (÷cerebellum) from a male Wistar rat (150-250 g) is homogenized; from tissue; host or cells: rat forebrain (without cerebellum) membrane homogenate
# T1 sequence (P09483 31-630): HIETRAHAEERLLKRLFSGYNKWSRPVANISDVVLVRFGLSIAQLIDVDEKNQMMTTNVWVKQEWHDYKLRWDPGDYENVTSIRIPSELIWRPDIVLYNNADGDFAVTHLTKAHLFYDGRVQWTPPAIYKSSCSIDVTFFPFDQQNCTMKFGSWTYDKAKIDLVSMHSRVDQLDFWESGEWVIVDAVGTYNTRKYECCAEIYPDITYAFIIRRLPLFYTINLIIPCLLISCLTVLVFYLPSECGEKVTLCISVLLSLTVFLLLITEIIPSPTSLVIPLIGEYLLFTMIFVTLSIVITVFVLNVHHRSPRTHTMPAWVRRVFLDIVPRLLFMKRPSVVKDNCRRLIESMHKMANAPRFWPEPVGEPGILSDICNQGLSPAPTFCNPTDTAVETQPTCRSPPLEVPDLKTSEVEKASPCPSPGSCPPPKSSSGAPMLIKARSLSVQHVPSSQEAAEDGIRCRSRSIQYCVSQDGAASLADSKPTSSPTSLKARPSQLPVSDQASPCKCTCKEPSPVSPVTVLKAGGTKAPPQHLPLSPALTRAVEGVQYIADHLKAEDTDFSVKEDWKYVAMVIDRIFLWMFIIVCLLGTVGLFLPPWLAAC
# T1 sequence (P12390 25-500): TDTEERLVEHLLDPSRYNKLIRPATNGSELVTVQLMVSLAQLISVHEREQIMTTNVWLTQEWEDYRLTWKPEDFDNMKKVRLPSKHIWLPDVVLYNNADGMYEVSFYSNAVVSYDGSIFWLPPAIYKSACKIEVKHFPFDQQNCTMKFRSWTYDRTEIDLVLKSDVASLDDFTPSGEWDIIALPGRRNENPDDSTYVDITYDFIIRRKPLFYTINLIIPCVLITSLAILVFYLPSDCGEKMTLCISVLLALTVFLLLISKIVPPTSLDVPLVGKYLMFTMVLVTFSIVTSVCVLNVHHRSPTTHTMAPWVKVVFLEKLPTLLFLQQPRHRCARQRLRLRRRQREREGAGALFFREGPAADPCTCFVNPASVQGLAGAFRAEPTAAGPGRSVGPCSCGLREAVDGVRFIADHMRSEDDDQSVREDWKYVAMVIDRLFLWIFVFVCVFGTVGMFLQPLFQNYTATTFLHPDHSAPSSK
# Method: The high affinity binding site for ^3H-epibatidin is most certainly binding to the α4β2 subtype of nicotinic receptors. The identity of the low affinity site is still unknown; does it represent a second nicotinic receptor or a second site in the same receptor.
# Tissue preparation: Preparations are performed at 0-4° C. unless otherwise indicated. The forebrain (÷cerebellum) from a male Wistar rat (150-250 g) is homogenized for 10-20 sec in 20 ml Tris, HCl (50 mM, pH 7.4) using an Ultra-Turrax homogenizer. The tissue suspension is centrifuged at 27,000×g for 10 min. The supernatant is discarded and the pellet is washed three times by centrifugation at 27,000×g for 10 min in 20 ml fresh buffer, and the final pellet is resuspended in fresh buffer (400 ml per g of original tissue) and used for binding assays.
# Assay: Aliquots of 2.0 ml homogenate are added to 0.100 ml of test solution and 0.100 ml of ^3H-epibatidin (0.3 nM, final concentration), mixed and incubated for 60 min at room temperature. Non-specific binding is determined using (−)-nicotine (30 μM, final concentration). After incubation the samples are poured directly onto Whatman GF/C glass fibre filters (presoaked in 0.1% PEI for at least 20 min) under suction and immediately washed with 2×5 ml ice-cold buffer. The amount of radioactivity on the filters is determined by conventional liquid scintillation counting. Specific binding is total binding minus non-specific binding.
# [4] = relative to morphine; cited from earlier work
# Sequence of nAChR formed by the α7 subunit isoform (Q05941 23-502): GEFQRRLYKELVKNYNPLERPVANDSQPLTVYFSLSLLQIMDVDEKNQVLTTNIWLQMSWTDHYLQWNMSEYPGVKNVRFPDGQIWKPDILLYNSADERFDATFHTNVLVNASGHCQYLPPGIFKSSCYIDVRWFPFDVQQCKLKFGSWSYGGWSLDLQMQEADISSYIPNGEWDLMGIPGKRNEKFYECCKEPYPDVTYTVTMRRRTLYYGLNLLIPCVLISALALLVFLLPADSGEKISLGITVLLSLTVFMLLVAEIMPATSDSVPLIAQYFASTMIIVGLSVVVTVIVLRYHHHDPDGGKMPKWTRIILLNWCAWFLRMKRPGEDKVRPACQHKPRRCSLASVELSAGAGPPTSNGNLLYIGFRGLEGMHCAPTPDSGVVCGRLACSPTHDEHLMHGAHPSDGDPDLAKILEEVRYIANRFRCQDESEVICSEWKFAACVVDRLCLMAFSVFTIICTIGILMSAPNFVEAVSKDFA
# Sequence of nAChRs comprised of α4 and β2 subunits (P09483 31-630): as the sequence (P09483 31-630) above
# Sequence of nAChRs comprised of α4 and β2 subunits (P12390 25-500): as the sequence (P12390 25-500) above
Compound,IC50 [1],IC50 [2],melting point,IC50 [3],"analgesic potency, times that of morphine [4]"
"COc1cncc(N2CCN(C)CC2)c1 [Compound 3A, 4-Methyl-1-(5-methoxy-3-pyridyl)-piperazine]",32.5 µM,0.068 µM,67.5 to 68 °C,0.38 µM,
Clc1ccc(C2CC3CCC2N3)cn1 (centres unmarked) [Epibatidine],,,,,~500 times
